In patent US20010053781A1, “Pharmaceutical composition for enhancing cognition” (National Science Council, priority 2000, published 2001):

Columns and labels:
[1] = test system: deficit of place learning in the Morris water maze task induced by scopolamine in rats; assay: Morris water maze test, scopolamine-induced deficit of place learning; assay type: in vivo, rat; settings: 50-100 mg/kg ferulic acid i.p., scopolamine 0.3 mg/kg i.p., FIG. 9
Protocol: The water maze apparatus (Columbus Instruments Intl. Co., USA) was used in this Example. The swimming time and track of rats in the water maze were monitored by the Videomex V System and recorded by computer software. The water maze apparatus consisted of a water tank of 180 cm in diameter and 35 cm in height. The water stained as milk-white color was poured into the tank (25 cm in depth, 23±1° C.) before the training trial. The tank was conceptually divided into the 4 quadrants of east, west, south and north on the computer. An acrylic plate of 10 cm in diameter was placed at the north quadrant 1 cm below the water level. Rats were trained 4 times per day as one training course for 5 days. In one training course, each rat swam to the acrylic plate from 4 different quadrants, respectively. 10 seconds after swimming to the acrylic plate, the rat was returned to the home cage. After 30 seconds of rest, the next training session was carried out. The swimming time from the beginning to the acrylic plate was recorded, and an upper cut-off time of 60 seconds was set^(18). Ferulic acid (Sigma) was freshly dissolved in carboxy-methyl cellulose, and administered to rats (50, 100 mg/kg, i.p.) 1 hour before the training trial in combination with the following drug: scopolamine HBr (muscarinic receptor blocker; 0.3 mg/kg, i.p.) 30 minutes before the training trial for inducing acquisition impairment.

[2] = test system: AF64A-induced impairment of passive avoidance response in rats; assay: Passive avoidance task, AF64A-induced impairment; assay type: in vivo, rat; settings: ferulic acid at 50-100 mg/kg, AF64-A 3 nmol/μl/brain into lateral ventricle 10 days before training, FIG. 8
Protocol: Male Sprague-Dawley rats, weighing 200-250 grams, were housed in groups of six with free access to food and water and kept in a regulated environment (23±1° C.), wherein a 12-hour light-dark cycle (08:00-20:00 hours light) was maintained. Each experimental group included 12-18 rats.
Rats were trained in a step-through passive avoidance task (Muromachi Kikai Co. Ltd. Japan). The apparatus consisted of two compartments having a steel-rod grid floor (36 parallel steel rods, 0.3 cm in diameter set 1.5 cm apart). One of the compartments (48×20×30 cm) was equipped with a 20 Watt lamp located centrally at a height of 30 cm, and the other was a dark compartment of the same size connected through a guillotine door (5×5 cm). […]
During the trial training, the guillotine door connecting the light and dark compartment was kept closed. After each rat was placed in the light compartment with its back to the guillotine door, the door was opened and simultaneously the time (step-through latency; STL) taken by the rat to enter the dark compartment was measured with a stopwatch^(14). […] The rat was once again placed in the light compartment and as in the case of the training trial, the guillotine door was opened and the step-through latency was recorded and used as a measure of retention. […]
The step-through latency of rats in light compartment was recorded according to the method described in Example 1. […]

[3] = test system: scopolamine plus mecamylamine-induced acquisition impairment of passive avoidance response in rats; assay: Passive avoidance task, scopolamine plus mecamylamine-induced acquisition impairment; assay type: in vivo, rat; settings: ferulic acid at 50-100 mg/ml (printed), scopolamine and mecamylamine co-administered under the threshold dosage, FIG. 6
Protocol: (§1) Male Sprague-Dawley rats, weighing 200-250 grams, were housed in groups of six with free access to food and water and kept in a regulated environment (23±1° C.), wherein a 12-hour light-dark cycle (08:00-20:00 hours light) was maintained. Each experimental group included 12-18 rats. Rats were trained in a step-through passive avoidance task (Muromachi Kikai Co. Ltd. Japan). The apparatus consisted of two compartments having a steel-rod grid floor (36 parallel steel rods, 0.3 cm in diameter set 1.5 cm apart). One of the compartments (48×20×30 cm) was equipped with a 20 Watt lamp located centrally at a height of 30 cm, and the other was a dark compartment of the same size connected through a guillotine door (5×5 cm). The dark room was used during the experimental sessions that were conducted between 09:00 and 17:00. During the trial training, the guillotine door connecting the light and dark compartment was kept closed. After each rat was placed in the light compartment with its back to the guillotine door, the door was opened and simultaneously the time (step-through latency; STL) taken by the rat to enter the dark compartment was measured with a stopwatch^(14). Once the rat entered the dark compartment, the door was closed. An inescapable scrambled footshock (1.0 mA for 2 sec) was then delivered through the grid floor. […]

[4] = test system: cerebral blood flow rate in rats; assay: Cerebral blood flow rate by laser Doppler flowmetry; assay type: in vivo, rat; settings: 50-100 mg/kg ferulic acid, from 10 to 40 minutes after administration, FIG. 10
Protocol: The cerebral blood flow rate was measured by laser Doppler flowmetry in rats according to the procedure described in Morikawa, E. et al.^(19).

[5] = test system: mecamylamine-induced acquisition impairment of passive avoidance response in rats; assay: Passive avoidance task, mecamylamine-induced acquisition impairment; assay type: in vivo, rat; settings: ferulic acid at 50-100 mg/ml (printed), i.p. 1 hour before training trial, mecamylamine 10 mg/kg i.p., FIG. 2
Protocol: as §1

[6] = test system: scopolamine (SCOP)-induced acquisition impairment of passive avoidance response in rats; assay: Passive avoidance task, scopolamine-induced acquisition impairment; assay type: in vivo, rat; settings: ferulic acid at 50-100 mg/ml (printed), i.p. 1 hour before training trial, scopolamine 1 mg/kg i.p., FIG. 1
Protocol: as §1

[7] = administered intravenously; reported by Xu et al.; cited from earlier work
[8] = test system: pirenzepine-induced acquisition impairment of passive avoidance response in rats; assay: Passive avoidance task, pirenzepine-induced acquisition impairment; assay type: in vivo, rat; settings: ferulic acid at 50-100 mg/ml (printed), i.p., pirenzepine 1 mg/kg i.p., FIG. 3
Protocol: as §1

[9] = test system: scopolamine (SCOP)-induced acquisition impairment of passive avoidance response in rats; assay: Passive avoidance task, scopolamine-induced impairment with peripheral antagonist scopolamine methylbromide; assay type: in vivo, rat; settings: FIG. 7
Protocol: as §1

[10] = test system: cycloheximide (CXM)-induced memory storage impairment of passive avoidance response in rats; assay: Passive avoidance task, cycloheximide-induced memory consolidation impairment; assay type: in vivo, rat; settings: ferulic acid at 50-100 mg/ml (printed), administered 60 minutes before the training trial, cycloheximide 1.5 mg/kg s.c., FIGS. 4-5
Protocol: as §1

## COc1cc(C=CC(=O)O)ccc1O [ferulic acid, 4-hydroxy-3-methoxycinnamic acid]
[1]
  effect on scopolamine-induced acquisition impairment in a water maze: ameliorates
[2]
  effect on memory impairment induced by AF64A (passive avoidance): counteracts
[3]
  effect on learning impairment induced by scopolamine plus mecamylamine (passive avoidance): attenuates
[4]
  effect on cerebral blood flow rate: enhances
[5]
  effect on mecamylamine-induced acquisition impairment (step-through latency, passive avoidance): attenuates
[6]
  effect on scopolamine-induced acquisition impairment (step-through latency, passive avoidance): attenuates
[7]
  half lethal dose (LD50): 866 ± 29 mg/kg
[8]
  effect on pirenzepine-induced acquisition impairment (step-through latency, passive avoidance): counteracts
[9]; ferulic acid 100 mg/kg with scopolamine methylbromide 0.5 mg/kg i.p.
  blocking of the counteracting effects of ferulic acid on scopolamine-induced learning impairment by peripheral cholinergic antagonist scopolamine methylbromide: does not block
[9]; ferulic acid at 100 mg/kg, scopolamine 0.3 mg/kg i.p.
  effect on scopolamine-induced acquisition impairment (passive avoidance): ameliorates
[10]
  effect on CXM-induced consolidation impairment (step-through latency, passive avoidance): significantly ameliorates
